Data taken from patent US8507472B2 (priority 2010, dated 2013).

What was measured:
[1] = tested on: Alternaria solani; experiment: Alternaria test (tomato)/protective; assay type: in vivo; settings: in vivo
Experimental: (§1) Solvent: 49 parts by weight of N,N-dimethylformamide
(§2) Emulsifier: 1 part by weight of alkylaryl polyglycol ether
To produce a suitable preparation of active compound, 1 part by weight of active compound is mixed with the stated amounts of solvent and emulsifier, and the concentrate is diluted with water to the desired concentration.
To test for protective activity, young tomato plants are sprayed with the active compound preparation at the stated application rate. 1 day after the treatment, the plants are inoculated with a spore suspension of Alternaria solani and then remain at 100% rel. humidity and 22° C. for 24 h. The plants then remain at 96% rel. atmospheric humidity and a temperature of 20° C.
(§3) Evaluation is carried out 7 days after the inoculation. 0% means an efficacy which corresponds to that of the control, whereas an efficacy of 100% means that no infection is observed.

[2] = tested on: Pyrenophora teres; experiment: Pyrenophora teres test (barley)/protective; assay type: in vivo; settings: in vivo
Experimental: as §1, §2
(§4) To produce a suitable preparation of active compounds, 1 part by weight of active compound is mixed with the stated amounts of solvent and emulsifier, and the concentrate is diluted with water to the desired concentration.
To test for protective activity, young barley plants are sprayed with the active compound preparation at the stated application rate. 1 day after the treatment, the plants are inoculated with an aqueous spore suspension of Pyrenophora teres and then remain at 100% rel. atmospheric humidity and 22° C. for 48 h. The plants are then placed in a greenhouse at 80% rel. atmospheric humidity and a temperature of 20° C.
Evaluation is carried out 7-9 days after the inoculation. 0% means an efficacy which corresponds to that of the control, whereas an efficacy of 100% means that no infection is observed.

[3] = tested on: Sphaerotheca fuliginea; experiment: Sphaerotheca test (cucumber)/protective; assay type: in vivo; settings: in vivo
Experimental: as §1, §2, §4
To test for protective activity, young cucumber plants are sprayed with the active compound preparation at the stated application rate. 1 day after the treatment, the plants are inoculated with a spore suspension of Sphaerotheca fuliginea. The plants are then placed in a greenhouse at 70% rel. atmospheric humidity and a temperature of 23° C.
as §3

[4] = log P determination by HPLC retention times (alkan-2-one calibration); settings: HCOOH, preparation examples in the text; for chromatographic logP: log P(HCOOH)

Compound: COCC(=O)Nc1cc(-c2c(-c3ccc(F)cc3)nn3c2CCOC3)ccn1 [Example 94]
- efficacy in % [1]: 90%
- efficacy in % [2]: 95%
- efficacy in % [3]: 93%

Compound: O=C(Cc1ccccc1)Nc1cc(-c2c(-c3ccc(F)cc3)nn3c2CCCCC3)ccn1 [Example 98]
- efficacy in % [1]: 90%
- efficacy in % [2]: 95%
- efficacy in % [3]: 90%

Compound: c1cc(-c2cc3n(n2)CCC3)cs1 [VII-13, 2-[3-Thienyl]-5,6-dihydro-4H-pyrrolo[1,2-b]pyrazole]
- chromatographic logP [4]: 2.01

Compound: Fc1ccc(-c2nn3c(c2I)CCCC3)cc1 [VIII-1, 2-(4-Fluorophenyl)-3-iodo-4,5,6,7-tetrahydropyrazolo[1,5-a]pyridine]
- chromatographic logP [4]: 3.79

Compound: Fc1ccc(-c2nn3c(c2I)CCCCC3)cc1 [VIII-2, 2-(4-Fluorophenyl)-3-iodo-5,6,7,8-tetrahydro-4H-pyrazolo[1,5-a]azepine]
- chromatographic logP [4]: 4.35

Compound: FC(F)(F)c1cccc(-c2nn3c(c2I)CCC3)c1 [VIII-3, 2-[3-(Trifluoromethyl)phenyl]-3-iodo-5,6-dihydro-4H-pyrrolo[1,2-b]pyrazole]
- chromatographic logP [4]: 4.11

Compound: Clc1ccc(-c2nn3c(c2I)CCC3)cc1 [VIII-4, 2-(4-Chlorophenyl)-3-iodo-5,6-dihydro-4H-pyrrolo[1,2-b]pyrazole]
- chromatographic logP [4]: 3.88

Compound: Ic1c(-c2ccccc2)nn2c1CCC2 [VIII-5, 2-(Phenyl)-3-iodo-5,6-dihydro-4H-pyrrolo[1,2-b]pyrazole]
- chromatographic logP [4]: 3.09

Compound: Fc1ccc(-c2nn3c(c2I)CCC3)cc1 [VIII-6, 2-(4-Fluorophenyl)-3-iodo-5,6-dihydro-4H-pyrrolo[1,2-b]pyrazole]
- chromatographic logP [4]: 3.3

Compound: Cc1ccc(-c2nn3c(c2I)CCC3)cc1 [VIII-7, 2-[4-Methylphenyl]-3-iodo-5,6-dihydro-4H-pyrrolo[1,2-b]pyrazole]
- chromatographic logP [4]: 3.54

Compound: Ic1c(-c2ccsc2)nn2c1CCC2 [VIII-8, 2-[3-Thienyl]-3-iodo-5,6-dihydro-4H-pyrrolo[1,2-b]pyrazole]
- chromatographic logP [4]: 2.97

Compound: COc1ccc(-c2nn3c(c2I)CCC3)cc1 [VIII-9, 2-[4-(Methoxy)phenyl]-3-iodo-5,6-dihydro-4H-pyrrolo[1,2-b]pyrazole]
- chromatographic logP [4]: 3.01

Compound: FC(F)(F)c1ccc(-c2nn3c(c2I)CCC3)cc1 [VIII-10, 2-[4-(Trifluoromethyl)phenyl]-3-iodo-5,6-dihydro-4H-pyrrolo[1,2-b]pyrazole]
- chromatographic logP [4]: 4.13

Compound: Fc1cccc(-c2nn3c(c2I)CCC3)c1 [VIII-11, 2-[3-Fluorophenyl]-3-iodo-5,6-dihydro-4H-pyrrolo[1,2-b]pyrazole]
- chromatographic logP [4]: 3.32

Compound: Ic1c(-c2ccccc2)nn2c1CCCC2 [VIII-12, 2-(Phenyl)-3-iodo-4,5,6,7-tetrahydropyrazolo[1,5-a]pyridine]
- chromatographic logP [4]: 3.55

Compound: Ic1c(-c2cccs2)nn2c1CCCC2 [VIII-13, 2-(2-Thienyl)-3-iodo-4,5,6,7-tetrahydropyrazolo[1,5-a]pyridine]
- chromatographic logP [4]: 3.45

Compound: Ic1c(-c2ccsc2)nn2c1CCCC2 [VIII-14, 2-(3-Thienyl)-3-iodo-4,5,6,7-tetrahydropyrazolo[1,5-a]pyridine]
- chromatographic logP [4]: 3.4

Compound: Ic1c(-c2ccccc2)nn2c1COCC2 [VIII-15, 3-Iodo-2-phenyl-6,7-dihydro-4H-pyrazolo[5,1-c][1,4]oxazine]
- chromatographic logP [4]: 2.82

Compound: CC1(C)OCCc2c(I)c(-c3ccc(F)cc3)nn21 [VIII-16, 2-(4-Fluorophenyl)-3-iodo-7,7-dimethyl-4,5-dihydropyrazolo[1,5-c][1,3]oxazine]
- chromatographic logP [4]: 4.28

Compound: Fc1ccc(-c2nn3c(c2Br)COCC3)cc1 [VIII-17, 3-Bromo-2-(4-fluorophenyl)-6,7-dihydro-4H-pyrazolo[5,1-c][1,4]oxazine]
- chromatographic logP [4]: 2.9

Compound: Brc1c(-c2ccccc2)nn2c1CSCC2 [VIII-18, 3-Bromo-2-phenyl-6,7-dihydro-4H-pyrazolo[5,1-c][1,4]thiazine]
- chromatographic logP [4]: 3.42

Compound: CC1CCc2c(I)c(-c3ccc(F)cc3)nn21 (stereo not drawn) [VIII-19, 2-(4-Fluorophenyl)-3-iodo-6-methyl-5,6-dihydro-4H-pyrrolo[1,2-b]pyrazole]
- chromatographic logP [4]: 3.82

Compound: CC1CCc2c(Br)c(-c3ccc(F)cc3)nn21 (stereo not drawn) [VIII-20, 2-(4-Fluorophenyl)-3-bromo-6-methyl-5,6-dihydro-4H-pyrrolo[1,2-b]pyrazole]
- chromatographic logP [4]: 3.77

Compound: CC1CCn2nc(-c3ccc(F)cc3)c(I)c21 (stereo not drawn) [VIII-21, 2-(4-Fluorophenyl)-3-iodo-4-methyl-5,6-dihydro-4H-pyrrolo[1,2-b]pyrazole]
- chromatographic logP [4]: 3.67

Compound: Fc1ccccc1-c1nn2c(c1Br)CCC2 [VIII-22, 3-Bromo-2-(2-fluorophenyl)-5,6-dihydro-4H-pyrrolo[1,2-b]pyrazole]
- chromatographic logP [4]: 2.81

Compound: Fc1ccc(-c2nn3c(c2I)CCOC3)cc1 [VIIIa-1, 2-(4-Fluorophenyl)-3-iodo-4,5-dihydropyrazolo[1,5-c][1,3]oxazine]
- chromatographic logP [4]: 3.23

Compound: Fc1ccc(-c2cc3n(n2)CCOC3)cc1 [VIIa-1, 2-(4-Fluorophenyl)-6,7-dihydro-4H-pyrazolo[5,1-c][1,4]oxazine]
- chromatographic logP [4]: 2.01

Compound: c1ccc(-c2cc3n(n2)CCSC3)cc1 [VIIb-1, 2-Phenyl-6,7-dihydro-4H-pyrazolo[5,1-c][1,4]thiazine]
- chromatographic logP [4]: 2.46

Compound: COC(=O)c1cc(-c2ccc(F)cc2)nn1CCCl [XI-1, Methyl 1-(2-chloroethyl)-3-(4-fluorophenyl)-1H-pyrazole-5-carboxylate]
- chromatographic logP [4]: 3.58

Compound: OCc1cc(-c2ccc(F)cc2)nn1CCCl [XIII-1, [1-(2-Chloroethyl)-3-(4-fluorophenyl)-1H-pyrazol-5-yl]methanol]
- chromatographic logP [4]: 1.84

Compound: OCc1cc(-c2ccccc2)n[nH]1 [XIV-1, (3-Phenyl-1H-pyrazol-5-yl)methanol]
- chromatographic logP [4]: 1.14

Compound: ClCc1cc(-c2ccccc2)n[nH]1 [XV-1, 5-(Chloromethyl)-3-phenyl-1H-pyrazole]
- chromatographic logP [4]: 2.05

Compound: O=C(C#CCCOCc1ccccc1)c1ccc(F)cc1 [XX-1, 5-(Benzyloxy)-1-(4-fluorophenyl)pent-2-yn-1-one]
- chromatographic logP [4]: 3.89

Compound: Fc1ccc(-c2cc(CCOCc3ccccc3)[nH]n2)cc1 [XXI, 5-[2-(Benzyloxy)ethyl]-3-(4-fluorophenyl)-1H-pyrazole]
- chromatographic logP [4]: 3.09

Compound: CC(Cl)CCC(=O)NN=C(c1ccccc1)c1ccccc1 (stereo not drawn) [XXV-1, 4-Chloro-N′-(diphenylmethylene)pentane hydrazide]
- log P(HCOOH) [4]: 3.76

Compound: CC1CCN(N=C(c2ccccc2)c2ccccc2)C1=O (stereo not drawn) [XXV-3, 1-[(Diphenylmethylene)amino]-3-methylpyrrolidin-2-one]
- chromatographic logP [4]: 2.62

Compound: CC1CCC(=O)N1N=C(c1ccccc1)c1ccccc1 (stereo not drawn) [XXVI-1, 1-[(Diphenylmethylene)amino]-5-methylpyrrolidin-2-one]
- chromatographic logP [4]: 2.73

Compound: O=C1CCCN1N=C(c1ccccc1)c1ccccc1 [XXVI-2, 1-[(Diphenylmethylene)amino]pyrrolidin-2-one]
- chromatographic logP [4]: 2.23

Compound: COC(=O)CC(=NN1C(=O)CCC1C)c1ccc(F)cc1 (stereo not drawn) [XXVIII-1, Methyl 3-(4-fluorophenyl)-3-[(2-methyl-5-oxopyrrolidin-1-yl)imino]propanoate]
- chromatographic logP [4]: 2.13

Compound: CCOC(=O)CC(=NN1C(=O)CCC1C)c1ccccc1F (stereo not drawn) [XXVIII-3, Ethyl 3-(2-fluorophenyl)-3-[(2-methyl-5-oxopyrrolidin-1-yl)imino]propanoate]
- chromatographic logP [4]: 2.34

Compound: CCOC(=O)CC(=NN1CCCC1=O)c1ccccc1F [XXVIII-4, Ethyl 3-(2-fluorophenyl)-3-[(2-oxopyrrolidin-1-yl)imino]propanoate]
- chromatographic logP [4]: 1.97

Compound: COC(=O)c1c(-c2ccc(F)cc2)nn2c1CCC2C (stereo not drawn) [XXX-1, Methyl 2-(4-fluorophenyl)-6-methyl-5,6-dihydro-4H-pyrrolo[1,2-b]pyrazole-3-carboxylate]
- chromatographic logP [4]: 2.84

Compound: COC(=O)c1c(-c2ccc(F)cc2)nn2c1C(C)CC2 (stereo not drawn) [XXX-2, Methyl 2-(4-fluorophenyl)-4-methyl-5,6-dihydro-4H-pyrrolo[1,2-b]pyrazole-3-carboxylate]
- chromatographic logP [4]: 2.71

Compound: CCOC(=O)c1c(-c2ccccc2F)nn2c1CCC2 [XXX-3, Ethyl 2-(2-fluorophenyl)-5,6-dihydro-4H-pyrrolo[1,2-b]pyrazole-3-carboxylate]
- chromatographic logP [4]: 2.49

Compound: CC1CCn2nc(-c3ccc(F)cc3)c(C(=O)O)c21 (stereo not drawn) [XXXI-2, 2-(4-Fluorophenyl)-4-methyl-5,6-dihydro-4H-pyrrolo[1,2-b]pyrazole-3-carboxylic acid]
- chromatographic logP [4]: 1.84

Compound: CC1CCc2c(C(=O)O)c(-c3ccccc3F)nn21 (stereo not drawn) [XXXI-3, 2-(2-Fluorophenyl)-6-methyl-5,6-dihydro-4H-pyrrolo[1,2-b]pyrazole-3-carboxylic acid]
- chromatographic logP [4]: 1.64

Compound: O=C(O)c1c(-c2ccccc2F)nn2c1CCC2 [XXXI-4, 2-(2-Fluorophenyl)-5,6-dihydro-4H-pyrrolo[1,2-b]pyrazole-3-carboxylic acid]
- chromatographic logP [4]: 1.35
